{"source": "patent US20080125467A1", "about": "“Amino-Containing Compounds Which Inhibit Memapsin 2 Beta-Secretase Activity and Methods of Use Thereof” (priority 2004, published 2008)", "key": {"[1]": {"biological_target": "T1, memapsin 2 (Cricetulus griseus, UniProt G3IAK4)", "T1 construct": "endogenous in cells; host or cells: Chinese hamster ovary cells over-expressing human APP695 (London + Swedish)", "T1 sequence (G3IAK4 22-501)": "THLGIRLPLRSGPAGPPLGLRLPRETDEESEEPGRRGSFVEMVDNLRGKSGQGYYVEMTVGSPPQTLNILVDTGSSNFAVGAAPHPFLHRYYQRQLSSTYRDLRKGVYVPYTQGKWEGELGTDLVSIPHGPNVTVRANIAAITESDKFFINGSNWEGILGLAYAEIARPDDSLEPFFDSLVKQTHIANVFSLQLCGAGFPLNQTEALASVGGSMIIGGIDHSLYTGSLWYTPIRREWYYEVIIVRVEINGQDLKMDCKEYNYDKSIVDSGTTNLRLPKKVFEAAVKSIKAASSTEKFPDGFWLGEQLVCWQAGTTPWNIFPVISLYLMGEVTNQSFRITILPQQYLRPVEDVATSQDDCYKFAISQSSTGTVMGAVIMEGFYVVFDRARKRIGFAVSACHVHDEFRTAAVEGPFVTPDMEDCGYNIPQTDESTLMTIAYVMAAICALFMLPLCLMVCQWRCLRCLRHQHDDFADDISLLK", "experiment": "Cellular Aβ IC50 determination (Aβ40 sandwich ELISA)", "assay_type": "cell-based", "conditions": "Chinese hamster ovary cells over-expressing human APP695 with London and Swedish mutations, 24 h", "protocol": "The potency of compounds against memapsin 2 activity was determined in a cellular assay of Aβ production. […] Chinese hamster ovary cells that over-express human APP695 with the London and Swedish mutations were seeded in multi-well plates at 10% confluency. Compounds were dissolved in DMSO to concentrations near 1 mM, and diluted into culture media to a final concentration near 4 μM (final 0.4% DMSO). Compounds were diluted serially and applied to cells in multi-well plates 48 h after seeding. Incubation was continued in 5% CO2 at 37 degrees C. for 24 h. Aliquots were removed and assayed for Aβ40 content using a sandwich ELISA (BioSource International). Amount of Aβ40 over the range of concentration of compounds, relative to control incubations, were fit to a 4-parameter IC50 model."}, "[2]": {"biological_target": "memapsin 2 (Homo sapiens, UniProt P56817)", "sequence (P56817 46-501)": "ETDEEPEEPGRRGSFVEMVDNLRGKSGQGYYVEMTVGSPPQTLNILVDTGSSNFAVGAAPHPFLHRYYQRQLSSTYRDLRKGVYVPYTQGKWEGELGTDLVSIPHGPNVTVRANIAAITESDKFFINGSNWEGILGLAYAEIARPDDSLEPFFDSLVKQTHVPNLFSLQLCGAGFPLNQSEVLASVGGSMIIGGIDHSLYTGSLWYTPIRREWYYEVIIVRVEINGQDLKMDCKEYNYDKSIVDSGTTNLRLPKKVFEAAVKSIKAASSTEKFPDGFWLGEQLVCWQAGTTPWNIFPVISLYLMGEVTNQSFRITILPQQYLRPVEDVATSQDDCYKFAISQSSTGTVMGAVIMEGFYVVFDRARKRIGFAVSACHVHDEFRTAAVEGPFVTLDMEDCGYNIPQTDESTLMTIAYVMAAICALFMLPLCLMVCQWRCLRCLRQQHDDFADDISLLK", "experiment": "Inhibition of memapsin 2 beta-secretase activity toward fluorogenic substrate FS-2", "assay_type": "biochemical", "conditions": "pH 4, 37° C., 20 minutes pre-incubation, fluorogenic substrate FS-2, tight-binding model; read-out: M2 Ki", "experimental": "Potency of compounds were determined by measurement of their inhibition of memapsin 2 activity toward a fluorescent substrate. […] Briefly, assays were performed at pH 4, 37° C., by pre-incubation of memapsin 2 enzyme with compound for 20 minutes. Activity measure was initiated by addition of a fluorogenic substrate FS-2 (Bachem Americas, Torrance, Calif.). Fluorescent signal increase over time was measured as a rate of hydrolysis of the peptide substrate."}}}
{"smiles": "CCC(Cn1nc(C)cc1C)C(=O)NC(CNC(=O)OC(C)(C)C)C(=O)NC(CC(C)C)C(O)CC(C)C(=O)NC(C(=O)NCc1nc(C)cs1)C(C)C", "note": "(stereo not shown) [tert-butyl 2-(2-((3,5-dimethyl-1H-pyrazol-1-yl)methyl)butanamido)-3-(5-hydroxy-2,7-dimethyl-8-(3-methyl-1-((4-methylthiazol-2-yl)methylamino)-1-oxobutan-2-ylamino)-8-oxooctan-4-ylamino)-3-oxopropylcarbamate]", "values": [{"measurement": "IC50", "setting": "[1]", "value": "< 6", "unit": "µM"}, {"measurement": "Ki", "setting": "[2]", "value": "< 0.1", "unit": "µM"}]}
{"smiles": "CC(=O)NCC(NC(=O)C(C)Cc1nc(C)cs1)C(=O)NC(CC(C)C)C(O)CC(C)C(=O)NC(C(=O)NCC(C)C)C(C)C", "note": "(stereo not shown) [5-(3-acetamido-2-(2-methyl-3-(4-methylthiazol-2-yl)propanamido)propanamido)-4-hydroxy-N-(1-(isobutylamino)-3-methyl-1-oxobutan-2-yl)-2,7-dimethyloctanamide]", "values": [{"measurement": "IC50", "setting": "[1]", "value": "6 to 100", "unit": "µM"}]}
{"smiles": "COCCOC(=O)NCC(NC(=O)C(C)Cc1nc(C)cs1)C(=O)NC(CC(C)C)C(O)CC(C)C(=O)NC(C(=O)NCC(C)C)C(C)C", "note": "(stereo not shown) [2-methoxyethyl 3-(5-hydroxy-8-(1-(isobutylamino)-3-methyl-1-oxobutan-2-ylamino)-2,7-dimethyl-8-oxooctan-4-ylamino)-2-(2-methyl-3-(4-methylthiazol-2-yl)propanamido)-3-oxopropylcarbamate]", "values": [{"measurement": "IC50", "setting": "[1]", "value": "< 6", "unit": "µM"}]}
{"smiles": "Cc1csc(CC(C)C(=O)NC(CNC(=O)OC(C)(C)C)C(=O)NC(CC(C)C)C(O)CC(C)C(=O)NC(C(=O)NCc2ccncc2)C(C)C)n1", "note": "(stereo not shown) [tert-butyl 3-(5-hydroxy-2,7-dimethyl-8-(3-methyl-1-oxo-1-(pyridin-4-ylmethylamino)butan-2-ylamino)-8-oxooctan-4-ylamino)-2-(2-methyl-3-(4-methylthiazol-2-yl)propanamido)-3-oxopropylcarbamate]", "values": [{"measurement": "IC50", "setting": "[1]", "value": "< 6", "unit": "µM"}]}
{"smiles": "CCC(Cc1nc(C)cs1)C(=O)NC(CN(C)OC)C(=O)NC(CC(C)C)C(O)CC(C)C(=O)NC(C(=O)NCC(C)C)C(C)C", "note": "(stereo not shown) [4-hydroxy-N-(1-(isobutylamino)-3-methyl-1-oxobutan-2-yl)-5-(3-(methoxy(methyl)amino)-2-(2-((4-methylthiazol-2-yl)methyl)butanamido)propanamido)-2,7-dimethyloctanamide]", "values": [{"measurement": "IC50", "setting": "[1]", "value": "> 100", "unit": "µM"}]}
{"smiles": "Cc1csc(CC(C)C(=O)NC(CNC(=O)OC(C)(C)C)C(=O)NC(CC(C)C)C(O)CC(C)C(=O)NC(C(=O)NCC(C)C)C(C)C)n1", "note": "(stereo not shown) [tert-butyl 3-(5-hydroxy-8-(1-(isobutylamino)-3-methyl-1-oxobutan-2-ylamino)-2,7-dimethyl-8-oxooctan-4-ylamino)-2-(2-methyl-3-(4-methylthiazol-2-yl)propanamido)-3-oxopropylcarbamate]", "values": [{"measurement": "IC50", "setting": "[1]", "value": "< 6", "unit": "µM"}]}
{"smiles": "Cc1cc(C)n(CC(N)C(=O)NC(CNC(=O)OC(C)(C)C)C(=O)NC(CC(C)C)C(O)CC(C)C(=O)NC(C(=O)NCC(C)C)C(C)C)n1", "note": "(stereo not shown) [tert-butyl 2-(2-amino-3-(3,5-dimethyl-1H-pyrazol-1-yl)propanamido)-3-(5-hydroxy-8-(1-(isobutylamino)-3-methyl-1-oxobutan-2-ylamino)-2,7-dimethyl-8-oxooctan-4-ylamino)-3-oxopropylcarbamate]", "values": [{"measurement": "IC50", "setting": "[1]", "value": "> 100", "unit": "µM"}]}
{"smiles": "Cc1csc(CC(C)C(=O)NC(CNC(=O)OC(C)(C)C)C(=O)NC(CC(C)C)C(O)CC(C)C(=O)NC(C(=O)NN(C)C)C(C)C)n1", "note": "(stereo not shown) [tert-butyl 3-(8-(1-(2,2-dimethylhydrazinyl)-3-methyl-1-oxobutan-2-ylamino)-5-hydroxy-2,7-dimethyl-8-oxooctan-4-ylamino)-2-(2-methyl-3-(4-methylthiazol-2-yl)propanamido)-3-oxopropylcarbamate]", "values": [{"measurement": "IC50", "setting": "[1]", "value": "< 6", "unit": "µM"}]}
{"smiles": "COC(=O)NC[C@H](NC(=O)OCc1nc(C)cs1)C(=O)N[C@@H](CC(C)C)[C@@H](O)C[C@@H](C)C(=O)N[C@H](C(=O)NCC(C)C)C(C)C", "values": [{"measurement": "IC50", "setting": "[1]", "value": "< 6", "unit": "µM"}]}
